ChEMBL document CHEMBL1240388, “Single nucleotide polymorphism analysis of the major tripartite multidrug efflux pump of Escherichia coli: functional conservation in disparate animal reservoirs despite exposure to antimicrobial chemotherapy” (2010)
Converted amounts (≈) assume the structure as drawn.

Legend:
Escherichia coli [1] = assay: Antibacterial activity against Escherichia coli AG102MB harboring naive acrB gene; assay type: functional
Escherichia coli [2] = assay: Antibacterial activity against Escherichia coli AG102MB harboring pS1328-based acrB gene; assay type: functional
Escherichia coli [3] = assay: Antibacterial activity against Escherichia coli AG102MB; assay type: functional
Escherichia coli [4] = assay: Antibacterial activity against Escherichia coli AG102MB harboring pP10-based acrB gene; assay type: functional
Escherichia coli [5] = assay: Antibacterial activity against Escherichia coli AG102MB harboring pSportI cloning vector

| Structure (SMILES) | MIC (Escherichia coli [1]) [µg/mL] | MIC (Escherichia coli [2]) [µg/mL] | MIC (Escherichia coli [3]) [µg/mL] | MIC (Escherichia coli [4]) [µg/mL] | MIC (Escherichia coli [5]) [µg/mL] |
| --- | --- | --- | --- | --- | --- |
| CN(C)[C@@H]1C(O)=C(C(N)=O)C(=O)[C@@]2(O)C(O)=C3C(=O)c4c(O)cccc4[C@@](C)(O)[C@H]3C[C@@H]12 [TETRACYCLINE] | 8 (≈ 18 µM) | 16 (≈ 36 µM) | 1 (≈ 2.25 µM) | 8 (≈ 18 µM) | 1 (≈ 2.25 µM) |
| CO[C@@H]1[C@@H](OC(N)=O)[C@@H](O)[C@H](Oc2ccc3c(O)c(NC(=O)c4ccc(O)c(CC=C(C)C)c4)c(=O)oc3c2C)OC1(C)C [NOVOBIOCIN] | 512 (≈ 836 µM) | 512 (≈ 836 µM) | 4 (≈ 6.53 µM) | 512 (≈ 836 µM) | 8 (≈ 13.1 µM) |
| CC[C@H]1OC(=O)C[C@@H](O)[C@H](C)[C@@H](O[C@@H]2O[C@H](C)[C@@H](O[C@H]3C[C@@](C)(O)[C@@H](O)[C@H](C)O3)[C@H](N(C)C)[C@H]2O)[C@@H](CC=O)C[C@@H](C)C(=O)/C=C/C(C)=C/[C@@H]1CO[C@@H]1O[C@H](C)[C@@H](O)[C@@H](OC)[C@H]1OC [TYLOSIN] | 1020 (≈ 1120 µM) | > 1020 | 128 (≈ 140 µM) | 1020 (≈ 1120 µM) | 16 (≈ 17.5 µM) |
| NC[C@H]1O[C@H](O[C@H]2[C@H](O)[C@@H](O[C@H]3O[C@H](CO)[C@@H](O)[C@H](N)[C@H]3O)[C@H](N)C[C@@H]2N)[C@H](O)[C@@H](O)[C@@H]1O [KANAMYCIN] | – | – | > 1020 | – | – |
| CC[C@H]1OC(=O)[C@H](C)[C@@H](O[C@H]2C[C@@](C)(OC)[C@@H](O)[C@H](C)O2)[C@H](C)[C@@H](O[C@@H]2O[C@H](C)C[C@H](N(C)C)[C@H]2O)[C@](C)(O)C[C@@H](C)C(=O)[C@H](C)[C@@H](O)[C@]1(C)O [ERYTHROMYCIN] | 128 (≈ 174 µM) | 512 (≈ 698 µM) | 4 (≈ 5.45 µM) | 128 (≈ 174 µM) | 8 (≈ 10.9 µM) |
| O=C(N[C@H](CO)[C@H](O)c1ccc([N+](=O)[O-])cc1)C(Cl)Cl [CHLORAMPHENICOL] | – | – | 2 (≈ 6.19 µM) | 32 (≈ 99 µM) | 4 (≈ 12.4 µM) |
| O=C(O)c1cn(C2CC2)c2cc(N3CCNCC3)c(F)cc2c1=O [CIPROFLOXACIN] | – | – | 0.063 (≈ 0.19 µM) | – | – |
| CC[n+]1c(-c2ccccc2)c2cc(N)ccc2c2ccc(N)cc21.[Br-] [HOMIDIUM BROMIDE] | 128 | 64 | 4 | 64 | 2 |
| C[C@H](CCC(=O)O)[C@H]1CC[C@H]2[C@@H]3[C@H](O)C[C@@H]4C[C@H](O)CC[C@]4(C)[C@H]3C[C@H](O)[C@]12C [CHOLIC ACID] | 8 (≈ 19.6 µM) | 16 (≈ 39.2 µM) | 4 (≈ 9.79 µM) | 8 (≈ 19.6 µM) | 4 (≈ 9.79 µM) |
| CC1(C)S[C@@H]2[C@H](NC(=O)[C@H](N)c3ccccc3)C(=O)N2[C@H]1C(=O)O [AMPICILLIN] | > 1020 | > 1020 | 16 (≈ 45.8 µM) | > 1020 | > 1020 |
| CC(=O)O[C@H]1C[C@@]2(C)[C@@H](C[C@@H](O)[C@H]3[C@@]4(C)CC[C@@H](O)[C@@H](C)[C@@H]4CC[C@@]32C)/C1=C(\CCC=C(C)C)C(=O)O [FUSIDIC ACID] | > 512 | > 512 | 16 (≈ 31 µM) | > 512 | 8 (≈ 15.5 µM) |
| CN(C)c1ccc(C(=C2C=CC(=[N+](C)C)C=C2)c2ccc(N(C)C)cc2)cc1.[Cl-] [GENTIAN VIOLET] | 4 | 4 | 0.5 | 4 | 0.5 |
| CO[C@H]1C[C@H](O[C@H]2[C@H](C)[C@@H](O[C@@H]3O[C@H](C)C[C@H](N(C)C)[C@H]3O)[C@@H](C)C[C@@]3(CO3)C(=O)[C@H](C)[C@@H](O)[C@@H](C)[C@@H](C)OC(=O)[C@@H]2C)O[C@@H](C)[C@@H]1O [OLEANDOMYCIN] | > 1020 | > 1020 | 256 (≈ 372 µM) | > 1020 | 64 (≈ 93 µM) |
